Experimental data: publication PMC9316000, “Preclinical Drug Pharmacokinetic, Tissue Distribution and Excretion Profiles of the Novel Limonin Derivate HY-071085 as an Anti-Inflammatory and Analgesic Candidate in Rats and Beagle Dogs” (Pharmaceuticals, 2022)
Where two headings read alike, the source gives them in different places.

Columns and labels:
[1] = Pharmacokinetics after single-dose intravenous administration in beagle dogs; format: in vivo; conditions: S-IV 1.25 mg/kg
Procedure: After the intravenous administration of 1.25 mg/kg HY-071085, there was also no gender difference for the plasma concentration time data in Figure 9.
(§1) In vivo PK profiling in dogs: Beagle dogs (approximately 8–10 kg in weight) were purchased from Jiangsu Yadong Experimental Animal Research Institute Co. Ltd (Nanjing, China). Before the experiment, several beagle dogs were randomly divided into several groups, half males and half females in each group. Four cycles of single-dose administration experiments were carried out, and the cleaning period was 3–5 days. Repeated-dose administration was carried out after the end of four cycles of single-dose administrations and cleaning periods. According to the dosage for the rats, the dosage for the beagle dogs was converted via the body surface area method. The HY-071085 active pharmaceutical ingredients were administered with a dosage volume of 2 mL/kg body weight. The whole-blood samples were centrifuged at 8000 rpm for 5 min, and the plasma samples were separated and stored at –80 °C until the analysis.
(§2) According to the obtained plasma concentration time data, the pharmacokinetic parameters were calculated using Phoenix WinNonlin 8.1 software. The pharmacokinetic parameters—i.e., the area under the curve (AUC), mean residence time (MRT), clearance rate (Cl/F) and steady-state apparent distribution volume (Vss/F)—were calculated by the method of moments, which was estimated according to the following formulae: AUCtn=∑Ci+Ci−1ti−ti−1/2 AUC∞=AUCtn+Cm/λ AUMCtn=∑tiCi+ti−1Ci−1ti−ti−1/2 AUMC∞=AUMCtn+Ctntn/λ+1/λ^2 MRT=AUMC∞/AUC∞ Cl/F=Dose/AUC Vss/F=Cl∗MRT where Ctn is the plasma concentration of tn at the last point after administration, and the elimination rate constant was obtained by ln(concentration) time linear regression.
(§3) Due to the drug having significant individual differences in rats, it could not be uniformly fitted with a PK atrioventricular model; as such, the pharmacokinetic parameters analyzed in this study were calculated using a non-atrioventricular model. The pharmacokinetic parameters are defined as follows: Cmax is the maximum blood concentration after administration and absorption, Tmax is the time required to reach Cmax, t1/2 is the time required to eliminate half of the plasma drug concentration after the drug distribution in the body reaches equilibrium, Cl/F is the apparent clearance rate, AUC0-tn is the area under the blood concentration time curve within the dosing interval, AUC0-∞ is the area under the plasma concentration time curve from 0 to infinity, MRT is the average time that all drug molecules stay in the body, and Vss/F is the steady-state apparent distribution volume, which is the product of the clearance rate and average residence time.

[2] = Plasma protein binding, human plasma; format: in vitro ADME; conditions: mean, read-out: plasma protein binding rate (converted)
Procedure: (§4) The PPB rate in dogs was about 40% at different concentrations in the concentration range (50–400 ng/mL), and in rats it was about 75%. The PPB rate in human plasma varied greatly at different concentrations, ranging from 100% at a low drug concentration to 58% at a high drug concentration, as shown in Table 4.

[3] = Plasma protein binding, rat plasma; format: in vitro ADME; conditions: read-out: plasma protein binding rate (converted)
Procedure: as §4

[4] = Pharmacokinetics after single-dose intragastric administration in beagle dogs; format: in vivo; conditions: both sexes, dog, plasma; for bioavailability: 1.25 mg/kg intragastric vs intravenous, from AUC0-∞, read-out: absolute oral bioavailability; for AUC: read-out: AUC0-tn; for Vd/F: read-out: Vss/F
Procedure: Male and female beagle dogs were administered low (1.25 mg/kg), medium (2.5 mg/kg) and high (5 mg/kg) doses of HY-071085 by gastric gavage, and blood samples were collected from the forelimb vein at various time points before and 8 h after administration in order to analyze the concentration of HY-071085 in the plasma. The profiles of the mean plasma concentration of HY-071085 versus time in dogs are presented in Figure 7, and the PK parameters are listed in Table 2. There was no gender difference in the pharmacokinetics in dogs (Figure 8). The AUCtn ratio for the three doses was 1:3.8:11.9, and the AUC0-∞ ratio between doses was 1:3.6:11.3, which was greater than the dose increase ratio (1:2:4), as shown in Figures S3 and S4.
as §1, §2, §3

[5] = Pharmacokinetics after repeated-dose intragastric administration in beagle dogs; format: in vivo; conditions: R-IG 2.5 mg/kg
Procedure: AUC0-∞ was 195.41 ± 90.03 and 728.57 ± 270.64 h∙ng/mL, respectively (Table 2, Figure 10). […] On the fifth and seventh days before administration, the plasma concentration (valley concentration) was mostly below the lower limit of quantification (1 ng/mL).
as §1, §2, §3

[6] = Plasma protein binding, dog plasma; format: in vitro ADME; conditions: read-out: plasma protein binding rate (converted)
Procedure: as §4

[7] = po, single-dose intragastric 2.5 mg/kg
[8] = both sexes, dog, plasma, po, 7 d

SMILES: CC1(C)OC2CC(=O)OCC23C1C/C(=N\OCCN1CCOCC1)C1(C)C3CC[C@@]2(C)[C@H](c3ccoc3)OC(=O)C3OC312 (stereo partly drawn) [HY-071085, (12S,12aS,E)-12-(furan-3-yl)-6,6,8a,12a-tetramethyl-8-((2-morpholinoethoxy)imino)dodecahydro-1H,3H-oxireno [2,3-d]pyrano [4’,3’:3,3a]isobenzofuro [5,4-f]isochromene-3,10(9aH)-dione]
- Cl/F [1]: 51.2 ± 24.2 mL/min/kg
- Vss/F [1]: 2.07 ± 1.17 L/kg
- AUC(0-inf) ([1]; both sexes, dog, plasma): 594 ± 538 ng·h/mL
- Cmax ([1]; both sexes, dog, plasma): 1200 ± 1510 ng/mL
- MRT ([1]; both sexes, dog, plasma): 37.2 ± 12 min
- Tmax ([1]; both sexes, dog, plasma): 5.4 ± 1.8 min
- half-life ([1]; both sexes, dog, plasma): 42 ± 5.4 min
- AUC ([1]; both sexes, dog, plasma, read-out: AUC0-tn): 591 ± 539 ng·h/mL
- fraction unbound at 100 ng/mL ([2]; 100 ng/mL): 0.267
- fraction unbound at 200 ng/mL ([2]; 200 ng/mL): 0.325
- fraction unbound at 400 ng/mL ([2]; 400 ng/mL): 0.384
- fraction unbound at 50 ng/mL ([3]; 50 ng/mL, mean): 0.261
- fraction unbound at 100 ng/mL ([3]; 100 ng/mL, mean): 0.247
- fraction unbound at 200 ng/mL ([3]; 200 ng/mL, mean): 0.228
- fraction unbound at 400 ng/mL ([3]; 400 ng/mL, mean): 0.211
- fraction unbound ([3]; rat, rats, concentration range 50–400 ng/mL): ~0.25
- bioavailability ([4]; oral): 13.1%
- bioavailability ([4]; po): ~13.1%
- AUC(0-inf) ([4]; po, S-IG 1.25 mg/kg): 54.1 ± 25.4 ng·h/mL
- CL/F ([4]; po, S-IG 1.25 mg/kg): 517 mL/min/kg
- Cmax ([4]; po, S-IG 1.25 mg/kg): 37.9 ± 20.1 ng/mL
- MRT ([4]; po, S-IG 1.25 mg/kg): 80.4 ± 31.8 min
- Tmax ([4]; po, S-IG 1.25 mg/kg): 29.4 ± 25.8 min
- half-life ([4]; po, S-IG 1.25 mg/kg): 52.8 ± 26.4 min
- AUC ([4]; po, S-IG 1.25 mg/kg): 51.1 ± 24.9 ng·h/mL
- Vd/F ([4]; po, S-IG 1.25 mg/kg): 35.3 ± 19.1 L/kg
- AUC(0-inf) ([4]; po, S-IG 5 mg/kg): 610 ± 235 ng·h/mL
- CL/F ([4]; po, S-IG 5 mg/kg): 156 mL/min/kg
- Cmax ([4]; po, S-IG 5 mg/kg): 436 ± 206 ng/mL
- MRT ([4]; po, S-IG 5 mg/kg): 87.6 ± 29.4 min
- Tmax ([4]; po, S-IG 5 mg/kg): 41.4 ± 33 min
- half-life ([4]; po, S-IG 5 mg/kg): 49.8 ± 7.8 min
- AUC ([4]; po, S-IG 5 mg/kg): 606 ± 236 ng·h/mL
- Vd/F ([4]; po, S-IG 5 mg/kg): 11.5 ± 6.03 L/kg
- AUC(0-inf) [4, 7]: 195 ± 90 ng·h/mL
- half-life [4, 7]: 49.8 ± 7.2 min
- plasma concentration (valley concentration) before administration ([5]; fifth and seventh days, mostly below the lower limit of quantification): < 1 ng/mL
- AUC(0-inf) [5, 8]: 729 ± 271 ng·h/mL
- CL/F at 7 d [5, 8]: 32.3 mL/min/kg
- Cmax at 7 d [5, 8]: 445 ± 135 ng/mL
- MRT at 7 d [5, 8]: 94.8 ± 8.4 min
- Tmax at 7 d [5, 8]: 16.2 ± 9 min
- half-life at 7 d [5, 8]: 64.8 ± 7.8 min
- AUC ([5]; both sexes, dog, plasma, po, 7 d, read-out: AUC0-tn): 723 ± 270 ng·h/mL
- Vd/F at 7 d ([5]; both sexes, dog, plasma, po, 7 d, read-out: Vss/F): 3.04 ± 1.19 L/kg
- fraction unbound at 50 ng/mL ([6]; 50 ng/mL, mean): 0.622
- fraction unbound at 100 ng/mL ([6]; 100 ng/mL, mean): 0.671
- fraction unbound at 200 ng/mL ([6]; 200 ng/mL, mean): 0.578
- fraction unbound at 400 ng/mL ([6]; 400 ng/mL, mean): 0.545
- fraction unbound ([6]; dog, dogs, concentration range 50–400 ng/mL): ~0.6
